Assay results reported in ChEMBL document CHEMBL1157898 (Bioorg Med Chem Lett, 2010).

Test system: H4
Assay: Toxicity in human H4 cells at 10 uM
Format: cell-based
Conditions: h4, 10 µM

## COc1cc(OC)c(C=C2C(O)=Nc3ccccc32)c(OC)c1 [IC261]
  Activity: 40 µM
